Experimental data reported in ChEMBL document CHEMBL3046371, “Benzimidazole derivatives: synthesis, leishmanicidal effectiveness, and molecular docking studies” (Med Chem Res, 2013).
≈ marks a conversion by molar mass, not a printed value.

tested on: Leishmania major; test: Antileishmanial activity against promastigote form of Leishmania major after 72 hr by Neubauer counting analysis; type: functional, organism-based

| IC50 | Structure (SMILES) |
| --- | --- |
| 0.88 µg/mL (≈ 3.47 µM) | Cc1ccc(-c2nc3cc([N+](=O)[O-])ccc3[nH]2)cc1 |
| 0.73 µg/mL (≈ 3.04 µM) | O=[N+]([O-])c1ccc2[nH]c(-c3ccccn3)nc2c1 |
| 0.64 µg/mL (≈ 2.63 µM) | Cc1ccc(-c2nc3cc([N+](=O)[O-])ccc3[nH]2)o1 |
| 0.77 µg/mL (≈ 2.99 µM) | O=[N+]([O-])c1ccc2[nH]c(-c3ccc(F)cc3)nc2c1 |
| 0.91 µg/mL (≈ 3.99 µM) | O=[N+]([O-])c1ccc2[nH]c(-c3ccc[nH]3)nc2c1 |
| 0.73 µg/mL (≈ 2.57 µM) | O=[N+]([O-])c1ccc2[nH]c(-c3ccccc3[N+](=O)[O-])nc2c1 |
| 0.81 µg/mL (≈ 3.61 µM) | COc1ccc(-c2nc3ccccc3[nH]2)cc1 |
| 0.64 µg/mL (≈ 2.34 µM) | O=[N+]([O-])c1ccc2[nH]c(-c3ccc(Cl)cc3)nc2c1 |
| 0.71 µg/mL (≈ 2.97 µM) | O=[N+]([O-])c1ccc(-c2nc3ccccc3[nH]2)cc1 |
| 0.62 µg/mL (≈ 2.23 µM) | O=[N+]([O-])c1ccc2[nH]c(-c3c[nH]c4ccccc34)nc2c1 |
| 0.76 µg/mL (≈ 2.44 µM) | CCCCOc1ccc(-c2nc3cc([N+](=O)[O-])ccc3[nH]2)cc1 |
| 0.62 µg/mL (≈ 3.1 µM) | c1csc(-c2nc3ccccc3[nH]2)c1 |
| 0.92 µg/mL (≈ 4.38 µM) | Oc1ccc(-c2nc3ccccc3[nH]2)cc1 |
| 0.8 µg/mL (≈ 3.34 µM) | O=[N+]([O-])c1ccc2[nH]c(-c3ccccc3)nc2c1 |
| 0.77 µg/mL (≈ 3.43 µM) | COc1cccc(-c2nc3ccccc3[nH]2)c1 |
| 0.8 µg/mL (≈ 2.84 µM) | CC(C)c1ccc(-c2nc3cc([N+](=O)[O-])ccc3[nH]2)cc1 |
| 0.68 µg/mL (≈ 3.5 µM) | c1ccc(-c2nc3ccccc3[nH]2)cc1 |
| 0.88 µg/mL (≈ 4.51 µM) | c1ccc2[nH]c(-c3ccncc3)nc2c1 |
| 0.87 µg/mL (≈ 3.73 µM) | c1ccc2[nH]c(-c3c[nH]c4ccccc34)nc2c1 |
| 0.78 µg/mL (≈ 3.41 µM) | Clc1ccccc1-c1nc2ccccc2[nH]1 |

Second part, the molecule before the results:

| Structure (SMILES) | IC50 |
| --- | --- |
| Clc1ccc(-c2nc3ccccc3[nH]2)cc1 | 0.72 µg/mL (≈ 3.15 µM) |
| O=[N+]([O-])c1cccc(-c2nc3ccccc3[nH]2)c1 | 0.82 µg/mL (≈ 3.43 µM) |
| Fc1ccc(-c2nc3ccccc3[nH]2)cc1 | 0.79 µg/mL (≈ 3.72 µM) |
| O=[N+]([O-])c1ccc2nc(-c3ccccc3Cl)[nH]c2c1 | 0.91 µg/mL (≈ 3.33 µM) |
| O=[N+]([O-])c1ccccc1-c1nc2ccccc2[nH]1 | 0.69 µg/mL (≈ 2.88 µM) |
| O=[N+]([O-])c1ccc2[nH]c(-c3cccs3)nc2c1 | 0.82 µg/mL (≈ 3.34 µM) |
| COc1cccc(-c2nc3cc([N+](=O)[O-])ccc3[nH]2)c1 | 0.82 µg/mL (≈ 3.05 µM) |
| O=[N+]([O-])c1cccc(-c2nc3cc([N+](=O)[O-])ccc3[nH]2)c1 | 0.79 µg/mL (≈ 2.78 µM) |
| c1c[nH]c(-c2nc3ccccc3[nH]2)c1 | 0.63 µg/mL (≈ 3.44 µM) |
| COc1ccc(-c2nc3cc([N+](=O)[O-])ccc3[nH]2)cc1 | 0.85 µg/mL (≈ 3.16 µM) |
| O=[N+]([O-])c1ccc2[nH]c(-c3cccnc3)nc2c1 | 0.79 µg/mL (≈ 3.29 µM) |
| CC(C)c1ccc(-c2nc3ccccc3[nH]2)cc1 | 0.64 µg/mL (≈ 2.71 µM) |
| O=[N+]([O-])c1ccc(-c2nc3cc([N+](=O)[O-])ccc3[nH]2)cc1 | 0.75 µg/mL (≈ 2.64 µM) |
| c1cncc(-c2nc3ccccc3[nH]2)c1 | 0.64 µg/mL (≈ 3.28 µM) |
| Cc1ccc(-c2nc3ccccc3[nH]2)o1 | 0.84 µg/mL (≈ 4.24 µM) |
| Cc1ccc(-c2nc3ccccc3[nH]2)cc1 | 0.79 µg/mL (≈ 3.79 µM) |
| CCCCOc1ccc(-c2nc3ccccc3[nH]2)cc1 | 0.65 µg/mL (≈ 2.44 µM) |
